Assay [1] is described as follows: A Cell Based Secondary Assay To Explore Cytotoxicity of Compounds that Sensitize Mycobacterium Tuberculosis to Beta-Lactam Antibiotics. The assay is classed as functional.
Assay [2] concerns the target Melanocortin receptor 4 (Homo sapiens, UniProt P32245). Briefly: MC4R antagonist potency on cAMP, dose response, cell-based, TR-FRET, biased antagonists (AID 602298).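 Further: antagonist potency against agonist-stimulated cAMP production.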 The assay is classed as functional.
The nature of assay [3]: nonselective inhibitors of cellular cAMP signaling, dose response, counter-screen for MC4R biased antagonist project, cell-based, TR-FRET cAMP detection (AID 602305).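 Further: U2OS cells stimulated with forskolin near its EC80 as the cAMP inducer; potency is for inhibition of forskolin-stimulated cAMP signaling.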 In kind it is functional. Background: The purpose of a counterscreen is to sort out artefacts and off-target activity.
Assay [4] has as its target T1, High affinity choline transporter 1 (Homo sapiens, UniProt Q9GZV3).
T1 sequence (Q9GZV3 whole entry): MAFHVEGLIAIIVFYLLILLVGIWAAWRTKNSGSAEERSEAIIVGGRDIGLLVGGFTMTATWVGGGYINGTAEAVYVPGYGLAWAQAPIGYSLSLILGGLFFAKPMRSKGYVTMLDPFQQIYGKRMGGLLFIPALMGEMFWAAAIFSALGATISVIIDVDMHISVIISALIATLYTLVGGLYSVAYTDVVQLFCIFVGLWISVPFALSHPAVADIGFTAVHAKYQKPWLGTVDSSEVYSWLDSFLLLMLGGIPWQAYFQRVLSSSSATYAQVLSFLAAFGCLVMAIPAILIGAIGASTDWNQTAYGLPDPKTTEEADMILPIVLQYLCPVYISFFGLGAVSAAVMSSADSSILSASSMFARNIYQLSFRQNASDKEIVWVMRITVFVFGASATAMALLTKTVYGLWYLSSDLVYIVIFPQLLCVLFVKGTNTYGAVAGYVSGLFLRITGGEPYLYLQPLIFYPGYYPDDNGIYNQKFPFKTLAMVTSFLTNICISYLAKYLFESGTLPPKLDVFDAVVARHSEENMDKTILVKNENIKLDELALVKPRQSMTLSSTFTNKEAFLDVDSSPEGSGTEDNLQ
Briefly: CHT inhibitors, dose response, cell-based, 5-point CRC, membrane potential dye (AID 504840). In kind it is functional.

For assay [5], the target named is T1, High affinity choline transporter 1. Nature of the assay: CHT inhibitors, dose response, cell-based, 10-point CRC, membrane potential dye (AID 588401).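 Further: membrane potential dye fluorescence of choline-evoked depolarization via CHT.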 In kind it is functional.
Assay [6] relates to HEK293. Briefly: cells. In kind it is functional, cell-based. To be noted: Homo sapiens.
Assay [7] concerns the target T2, Nuclear receptor subfamily 0 group B member 1 (Homo sapiens, UniProt P51843).
T2 sequence (P51843 whole entry): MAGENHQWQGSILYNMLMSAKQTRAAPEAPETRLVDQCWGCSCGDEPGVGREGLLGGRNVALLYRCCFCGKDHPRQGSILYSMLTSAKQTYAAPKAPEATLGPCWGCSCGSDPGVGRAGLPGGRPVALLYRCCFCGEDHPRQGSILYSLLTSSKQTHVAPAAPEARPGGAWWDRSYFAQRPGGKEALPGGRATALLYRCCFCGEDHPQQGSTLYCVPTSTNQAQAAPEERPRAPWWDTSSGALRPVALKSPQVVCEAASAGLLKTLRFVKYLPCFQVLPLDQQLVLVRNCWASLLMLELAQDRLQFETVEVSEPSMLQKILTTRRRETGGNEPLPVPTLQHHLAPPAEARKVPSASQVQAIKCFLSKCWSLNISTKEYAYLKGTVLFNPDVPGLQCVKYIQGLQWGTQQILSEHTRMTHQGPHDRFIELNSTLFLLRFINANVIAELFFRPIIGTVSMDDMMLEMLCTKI
Nature of the assay: Luminescence-based cell-based high throughput dose response assay for inhibitors of the orphan nuclear receptor subfamily 0, group B, member 1 (DAX1; NR0B1). [Related pubchem assays (depositor defined):AID504766, AID504790]. The assay is classed as functional.

Assay [8] can be described thus: HEp-2 cell cytotoxicity, dose response, cytotoxicity control for RSV inhibitor project, HTS (AID 2410). The note with it: human respiratory syncytial virus. The assay is classed as functional.
The target of assay [9] is T3, Microphthalmia-associated transcription factor (Homo sapiens, UniProt O75030).
T3 sequence (O75030 whole entry): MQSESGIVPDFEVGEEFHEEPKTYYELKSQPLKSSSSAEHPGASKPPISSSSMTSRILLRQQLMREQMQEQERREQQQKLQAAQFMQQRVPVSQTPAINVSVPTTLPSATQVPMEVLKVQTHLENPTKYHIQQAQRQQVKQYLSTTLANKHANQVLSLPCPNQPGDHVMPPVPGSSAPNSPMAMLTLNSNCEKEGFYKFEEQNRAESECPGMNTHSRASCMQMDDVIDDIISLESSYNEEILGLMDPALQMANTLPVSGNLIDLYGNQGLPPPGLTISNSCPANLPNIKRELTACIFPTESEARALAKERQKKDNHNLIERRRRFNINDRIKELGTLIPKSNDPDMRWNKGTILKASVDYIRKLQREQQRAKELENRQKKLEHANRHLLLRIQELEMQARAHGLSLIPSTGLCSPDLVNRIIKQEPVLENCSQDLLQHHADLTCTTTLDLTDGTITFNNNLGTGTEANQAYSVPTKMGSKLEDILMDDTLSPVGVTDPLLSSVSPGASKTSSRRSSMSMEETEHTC
Nature of the assay: TRPM1 promoter luciferase signal decrease, dose response, MITF inhibitor project, cell-based, SK-MEL-5, cherry-picked, set 3 (AID 493073).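 Further: SK-MEL-5 melanoma cells with luciferase driven by the MITF target TRPM1 promoter.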 The assay is classed as functional.

Assay [10] concerns the target T4, Sentrin-specific protease 8 (Homo sapiens, UniProt Q96LD8).
T4 sequence (Q96LD8 whole entry): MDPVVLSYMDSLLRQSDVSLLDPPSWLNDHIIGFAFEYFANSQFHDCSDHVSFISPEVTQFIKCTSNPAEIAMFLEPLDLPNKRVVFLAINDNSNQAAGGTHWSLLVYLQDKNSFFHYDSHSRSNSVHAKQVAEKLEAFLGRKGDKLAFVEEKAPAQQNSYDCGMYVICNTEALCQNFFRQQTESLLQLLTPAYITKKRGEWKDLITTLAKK
Nature of the assay: SENP8 protease inhibitors, SAR follow-up, biochemical, luminescence (AID 504501). In kind it is functional.

The target in assay [11] is T5, Caspase-3 (Homo sapiens, UniProt P42574).
T5 sequence (P42574 whole entry): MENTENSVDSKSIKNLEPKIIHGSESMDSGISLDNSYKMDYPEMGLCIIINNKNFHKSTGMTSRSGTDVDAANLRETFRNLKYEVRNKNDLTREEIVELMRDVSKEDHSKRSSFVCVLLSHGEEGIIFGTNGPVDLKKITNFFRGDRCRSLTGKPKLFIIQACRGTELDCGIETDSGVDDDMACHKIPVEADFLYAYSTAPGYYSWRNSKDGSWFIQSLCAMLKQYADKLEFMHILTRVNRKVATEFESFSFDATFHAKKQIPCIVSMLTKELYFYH
Briefly: SAR Analysis of small molecule inhibitors of Sentrin-specific proteases (SENPs) using a Caspase-3 Selectivity assay. [Related pubchem assays (depositor defined):AID2540, AID2599, AID434973, AID489001]. In kind it is functional.

The target in assay [12] is T6, Sentrin-specific protease 6 (Homo sapiens, UniProt Q9GZR1).
T6 sequence (Q9GZR1 whole entry): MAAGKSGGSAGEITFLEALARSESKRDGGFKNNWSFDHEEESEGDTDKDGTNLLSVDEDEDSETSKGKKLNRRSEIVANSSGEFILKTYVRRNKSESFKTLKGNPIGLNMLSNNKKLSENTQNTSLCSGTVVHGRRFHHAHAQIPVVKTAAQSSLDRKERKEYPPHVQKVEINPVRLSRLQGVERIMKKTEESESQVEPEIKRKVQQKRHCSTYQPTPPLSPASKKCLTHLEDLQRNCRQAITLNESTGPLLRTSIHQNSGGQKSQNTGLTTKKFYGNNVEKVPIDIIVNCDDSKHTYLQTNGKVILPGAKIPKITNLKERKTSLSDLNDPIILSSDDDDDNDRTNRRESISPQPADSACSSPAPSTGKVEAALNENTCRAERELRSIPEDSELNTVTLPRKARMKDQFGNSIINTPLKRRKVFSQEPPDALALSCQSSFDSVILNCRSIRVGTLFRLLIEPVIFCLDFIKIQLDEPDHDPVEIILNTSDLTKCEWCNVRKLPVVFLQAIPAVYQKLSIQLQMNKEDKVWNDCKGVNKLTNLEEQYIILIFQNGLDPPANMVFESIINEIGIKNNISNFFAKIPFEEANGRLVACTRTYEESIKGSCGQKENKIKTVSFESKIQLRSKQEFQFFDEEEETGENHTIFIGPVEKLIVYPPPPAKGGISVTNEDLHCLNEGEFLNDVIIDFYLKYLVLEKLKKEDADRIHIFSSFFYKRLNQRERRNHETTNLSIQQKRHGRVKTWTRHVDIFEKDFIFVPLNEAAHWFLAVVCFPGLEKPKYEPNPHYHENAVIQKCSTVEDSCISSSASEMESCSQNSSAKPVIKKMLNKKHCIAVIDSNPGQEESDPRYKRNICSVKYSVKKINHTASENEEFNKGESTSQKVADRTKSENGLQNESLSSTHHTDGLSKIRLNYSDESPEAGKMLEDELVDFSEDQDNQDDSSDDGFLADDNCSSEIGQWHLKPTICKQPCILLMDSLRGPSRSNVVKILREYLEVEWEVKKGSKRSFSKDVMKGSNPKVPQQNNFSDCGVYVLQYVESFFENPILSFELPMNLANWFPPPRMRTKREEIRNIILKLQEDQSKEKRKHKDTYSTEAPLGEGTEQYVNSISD
Briefly: SAR Analysis of small molecule inhibitors of Sentrin-specific protease 6 (SENP6) using a Luminescent assay. [Related pubchem assays (depositor defined):AID2582, AID2599]. The assay is classed as functional.

Assay [13] deals with T7, Sentrin-specific protease 7 (Homo sapiens, UniProt Q9BQF6).
T7 sequence (Q9BQF6 whole entry): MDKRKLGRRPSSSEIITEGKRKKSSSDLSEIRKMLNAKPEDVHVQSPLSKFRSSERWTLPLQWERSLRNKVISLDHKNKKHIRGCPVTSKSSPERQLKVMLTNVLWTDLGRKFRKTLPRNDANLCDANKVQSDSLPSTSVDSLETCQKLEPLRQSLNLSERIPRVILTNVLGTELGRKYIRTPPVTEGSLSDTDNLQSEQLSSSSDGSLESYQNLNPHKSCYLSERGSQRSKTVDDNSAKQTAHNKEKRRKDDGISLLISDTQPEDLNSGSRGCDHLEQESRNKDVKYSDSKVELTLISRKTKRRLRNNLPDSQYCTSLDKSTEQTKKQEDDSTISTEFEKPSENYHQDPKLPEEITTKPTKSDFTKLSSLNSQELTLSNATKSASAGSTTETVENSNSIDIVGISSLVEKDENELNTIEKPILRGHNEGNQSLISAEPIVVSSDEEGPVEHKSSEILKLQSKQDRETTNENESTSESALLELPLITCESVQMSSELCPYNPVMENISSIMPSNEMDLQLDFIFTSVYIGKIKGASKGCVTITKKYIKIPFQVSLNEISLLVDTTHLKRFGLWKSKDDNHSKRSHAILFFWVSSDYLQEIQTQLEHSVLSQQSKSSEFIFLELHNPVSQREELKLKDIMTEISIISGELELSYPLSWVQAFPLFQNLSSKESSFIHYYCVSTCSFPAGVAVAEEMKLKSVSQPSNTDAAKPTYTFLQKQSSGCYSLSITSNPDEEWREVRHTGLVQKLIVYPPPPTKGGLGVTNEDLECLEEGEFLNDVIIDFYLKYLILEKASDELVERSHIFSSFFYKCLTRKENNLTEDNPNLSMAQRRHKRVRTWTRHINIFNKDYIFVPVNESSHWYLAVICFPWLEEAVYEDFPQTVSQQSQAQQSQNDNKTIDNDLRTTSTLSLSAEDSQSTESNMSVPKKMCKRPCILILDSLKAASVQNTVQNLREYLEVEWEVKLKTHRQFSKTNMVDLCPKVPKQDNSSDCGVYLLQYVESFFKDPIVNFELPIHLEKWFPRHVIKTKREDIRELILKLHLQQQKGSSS
Nature of the assay: SENP7 protease inhibitors, SAR follow-up, biochemical, luminescence (AID 504497). The assay is classed as functional.

The structures appear in SMILES notation. The source made the active and inactive calls.

Sequence of Melanocortin receptor 4 (P32245 whole entry): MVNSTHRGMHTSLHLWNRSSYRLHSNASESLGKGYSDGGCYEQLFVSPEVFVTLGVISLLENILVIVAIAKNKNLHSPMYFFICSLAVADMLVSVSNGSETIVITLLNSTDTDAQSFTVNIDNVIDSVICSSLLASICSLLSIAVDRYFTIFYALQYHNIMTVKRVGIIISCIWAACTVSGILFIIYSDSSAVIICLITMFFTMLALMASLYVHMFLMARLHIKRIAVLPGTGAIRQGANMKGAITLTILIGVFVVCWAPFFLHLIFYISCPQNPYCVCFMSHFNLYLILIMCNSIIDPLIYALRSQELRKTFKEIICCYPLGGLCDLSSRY

By CC50 is commonly meant the concentration that lowers cell viability or growth by half. Broadly, the IC50 is the concentration needed to halve the response being measured. `Cc1ccc2nc(-c3ccc(NC(=S)NC(=O)C(C)C)cc3)sc2c1`: the CC50 in assay [1] was > 40 µM (active). Besides, the IC50 in [2] and in [3] was > 64.6 µM (inactive) each time.
In the case of `C#CCNc1c(C)c(C)nc2ncnn12`, the IC50 is 9.35 µM (active) in assay [4] and 4.47 µM (active) in assay [5].
On to `CC1CCCN(c2nc(-c3cccnc3)nc3scc(-c4ccccc4)c23)C1` (stereo unspecified), for which the IC50 in assay [2] and in assay [3] was > 64.6 µM (inactive) throughout.
As for `O=C(c1ccccc1)c1cnc(-c2ccccc2)s1`, the IC50 in [6] and in [7] was > 67.6 µM (inactive) each time.
For the molecule `COc1ccc(-c2nc3ncccn3c2Br)cc1`, in assay [8], the CC50 was 39.3 µM (active). For the same molecule, the IC50 in assay [6] and in [7] was > 67.6 µM (inactive) throughout.
On to `Brc1ccc(-c2csc(N3CCOCC3)n2)cc1`, for which the IC50 in [6] and in [7] was > 67.5 µM (inactive) throughout.
What is called AC50 is the midpoint of the concentration-response curve, whichever way the signal moves. With `Cc1cc(C(=O)CCl)c(C)n1CCc1ccc(F)cc1`, the AC50 in assay [9] is 4.25 µM (active). Besides, the IC50 in assay [2] and in assay [3] was > 64.5 µM (inactive) each time.
`COC(=O)c1ccc(C2c3[nH]c4ccccc4c3C[C@H]3C(=O)N(C4CCN(Cc5ccccc5)CC4)CC(=O)N23)cc1` (stereo partly specified): the IC50 in [2] and in assay [3] was > 64.6 µM (inactive) throughout.
`NC(=O)CSc1nnc(-c2ccc(O)cc2)n1Cc1ccco1`: the IC50 in [6] and in assay [7] was > 67.6 µM (inactive) in each case.
As to `Cc1cc(Cl)ccc1NC(=O)c1ccc2c(c1)OCO2`, the IC50 was > 99 µM (inactive) in assay [10], 28.1 µM (active) in assay [11], > 99 µM (inactive) in [12] and 34.6 µM (active) in assay [13].
For the molecule `Oc1nnc(/C=C/c2ccc(F)cc2)o1`, the IC50 in [10], in assay [11], in assay [12] and in assay [13] was > 99 µM (inactive) in each case.
Take `O=[N+]([O-])c1cc(Br)cc(/C=N/c2ccc3c(c2)OCO3)c1O`: the results for the IC50 in assay [4] and in assay [5] were 9.12 µM (active) and 10 µM (active), respectively.

(Values after ChEMBL document CHEMBL1201862, “PubChem BioAssay data set” (2004).)
